PMC5658359, “A potent small-molecule inhibitor of the DCN1-UBC12 interaction that selectively blocks cullin 3 neddylation” (Nature Communications, 2017)
“Also recorded” adds a separate entry of the source.

Legend:
NEDD8 E1 (APP-BP1/Uba3) = target: T1, NEDD8 E1 (APP-BP1/Uba3) (Homo sapiens, UniProt Q8TBC4); experiment: In vitro UBC12~NEDD8 thioester forming assay; type: biochemical; conditions: DI-591 at concentrations up to 100 µM
T1 construct: purchased Boston Biochem
T1 sequence (Q8TBC4 1-463): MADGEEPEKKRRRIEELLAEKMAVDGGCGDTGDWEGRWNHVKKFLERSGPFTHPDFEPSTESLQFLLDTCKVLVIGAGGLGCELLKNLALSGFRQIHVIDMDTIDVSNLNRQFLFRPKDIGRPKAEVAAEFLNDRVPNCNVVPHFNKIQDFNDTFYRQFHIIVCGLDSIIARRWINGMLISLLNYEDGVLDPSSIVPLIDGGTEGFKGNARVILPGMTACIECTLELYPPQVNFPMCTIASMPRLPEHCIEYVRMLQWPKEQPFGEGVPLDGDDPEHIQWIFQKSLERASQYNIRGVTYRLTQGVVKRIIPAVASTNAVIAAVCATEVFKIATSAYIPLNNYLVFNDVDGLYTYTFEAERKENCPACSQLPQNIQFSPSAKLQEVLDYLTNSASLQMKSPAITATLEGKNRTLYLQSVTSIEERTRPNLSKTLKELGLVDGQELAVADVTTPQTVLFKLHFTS
T1 sequence (Q13564 1-534 partner): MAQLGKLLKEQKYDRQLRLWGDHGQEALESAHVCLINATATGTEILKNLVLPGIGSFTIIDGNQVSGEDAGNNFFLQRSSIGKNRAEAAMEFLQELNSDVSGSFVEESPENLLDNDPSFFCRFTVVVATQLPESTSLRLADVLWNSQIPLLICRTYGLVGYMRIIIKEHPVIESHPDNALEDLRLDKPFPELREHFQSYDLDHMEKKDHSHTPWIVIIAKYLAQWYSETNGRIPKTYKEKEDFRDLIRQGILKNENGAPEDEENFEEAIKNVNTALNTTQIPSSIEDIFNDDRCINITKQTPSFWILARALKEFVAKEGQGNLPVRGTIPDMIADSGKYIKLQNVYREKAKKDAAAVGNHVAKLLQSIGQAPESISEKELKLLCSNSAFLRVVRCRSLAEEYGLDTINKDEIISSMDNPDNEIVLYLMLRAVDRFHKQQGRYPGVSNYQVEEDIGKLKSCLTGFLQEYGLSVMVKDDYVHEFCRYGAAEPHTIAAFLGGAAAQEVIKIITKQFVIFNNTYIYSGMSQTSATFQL
Description: NEDD8, NEDD8 E1 (APP-BP1/Uba3) and UBC12 proteins were purchased from Boston Biochem. NEDD8 (10 μM), NEDD8 E1 (25 nM), and UBC12 (2 μM) were incubated in Tris-HCl (pH 7.4, 50 mM), MgCl2 (5 mM), DTT (0.5 mM) and BSA (0.1 mg/ml), with a tested compound at 25 °C for 10 min. Reactions were initiated by addition of 2 mM ATP (or distilled H2O) and ran for 5 min at 25 °C. 1 M DTT (or distilled H2O) was added to the reaction mixtures which were then kept on ice for 1 min followed by addition of SDS loading buffer (without DTT). The products were separated by SDS–PAGE, visualized by Coomassie stain and quantified by ImageLab (Bio-Rad).
1 Supplementa ry Figure 3:
3 Supplementary Figure 3. In vitro U BC12~N EDD8 thio ester forming assay.N EDD8,
4 NEDD8 E1 (APP -BP 1/Uba3) and UBC12 were purchased from Boston Biochem. 10μ M
5 NEDD8, 25nM N EDD8 E1,and 2μ M UBC12 were incubated in 50mM Tris-HCl (pH 7.4), 5mM
6 M gC l 2, 0.5mM DTT, and 0.1mg/ml BSA, with indicated compounds at 25℃ for 10min.
7 Reactions were initiated by addition o f 2mM ATP (or dH2O) and w ere run for 5min at 25℃ .
8 Reaction mixtures were t hen added with 1M DTT (or dH 2O) and kept on ice for 1min followed
9 by addition of SDS Loading buffer (without DTT). The products were s eparated b y SDS-PAGE,
10 visualized by Coomassie stain and quantified using an ImageLab imager ( Bio-Rad). […]

THLE2 = experiment: Cell viability, WST assay, THLE2; type: cell-based; conditions: Homo sapiens, THLE-2, 96 h; THLE2, t = 4 d
Description: (§1) Supplementary Figure 8: 1
(§2) […] in a panel of 6 cell lines. (a) The indicated cell lines were treated with MLN4924, 4
(§3) Cell viability was determined with a WST assay. (b) The 5
(§4) was determined with a WST assay. 7

neddylation of cullin 3 = experiment: Western blotting of neddylated and un-neddylated cullin 3 in cells; type: cell-based; conditions: THLE2 liver cells, up to 24 h, MLN4924 0.3 µM
From the text: (§5) Treated cells were lysed by RIPA buffer supplemented with protease and phosphatase inhibitors. The expression level of indicated proteins was examined by immunoblotting analysis. GAPDH was used as the loading control.

KYSE70 = experiment: Cell viability, WST assay, KYSE70; type: cell-based; conditions: Homo sapiens, KYSE-70, 96 h; KYSE70, t = 4 d
Description: as §1, §2, §3, §4

NRF2 = experiment: Western blotting of NRF2 protein in cells; type: cell-based; conditions: western blot, 24 h
From the text: as §5

p21, Bim, CDT1 = experiment: Western blotting of cullin 1 and 4A CRL substrates in cells; type: cell-based; conditions: western blot, 24 h
From the text: as §5

[1] = test system: THLE2 cells and five additional cancer cell lines; experiment: Cell viability, WST assay, panel of 6 cell lines; type: cell-based; conditions: Homo sapiens, THLE-2; 6 different cell lines; read-out: IC50, inhibition of cell viability
[2] = test system: neddylation of cullin 1 and other cullins; experiment: Western blotting of neddylated and un-neddylated cullin 1 and other cullins in cells; type: cell-based
From the text: as §5

KYSE140 = experiment: Cell viability, WST assay, KYSE140; type: cell-based; conditions: Homo sapiens, KYSE-140, 96 h; KYSE140, t = 4 d
Description: as §1, §2, §3, §4

DCN4 = target: T2, DCN4 (Homo sapiens, UniProt Q92564); experiment: Biochemical assays, binding of 47 to recombinant DCN4 (method not specified); conditions: concentrations up to 10 µM
T2 construct: DCN2 (residues 62–259), DCN3 (residues 86–304), DCN4 (residues 102–292) and DCN5 (residues 47–237); His6-TEV (N, cleaved yes); made in house; host or cells: Rosetta2 cells (E. coli)
T2 sequence (Q92564 102-292): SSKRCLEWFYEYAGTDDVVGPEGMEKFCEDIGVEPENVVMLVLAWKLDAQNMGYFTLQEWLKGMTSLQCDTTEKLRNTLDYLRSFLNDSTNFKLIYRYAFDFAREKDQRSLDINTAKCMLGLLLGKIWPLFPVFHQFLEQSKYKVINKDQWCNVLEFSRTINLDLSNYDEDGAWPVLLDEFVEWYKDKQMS

DCN3 = target: T3, DCN3 (Homo sapiens, UniProt Q8IWE4); experiment: Biochemical assays, binding of 47 to recombinant DCN3 (method not specified); conditions: concentrations up to 10 µM
T3 construct: DCN2 (residues 62–259), DCN3 (residues 86–304), DCN4 (residues 102–292) and DCN5 (residues 47–237); His6-TEV (N, cleaved yes); made in house; host or cells: Rosetta2 cells (E. coli)
T3 sequence (Q8IWE4 86-304): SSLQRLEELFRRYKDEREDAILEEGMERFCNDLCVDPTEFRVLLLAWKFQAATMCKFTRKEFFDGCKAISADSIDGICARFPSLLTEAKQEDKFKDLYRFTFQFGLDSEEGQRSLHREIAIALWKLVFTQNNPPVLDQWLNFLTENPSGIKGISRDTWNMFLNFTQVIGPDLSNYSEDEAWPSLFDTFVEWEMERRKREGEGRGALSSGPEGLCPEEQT

DCN2 = target: T4, DCN2 (Homo sapiens, UniProt Q6PH85); experiment: Competitive FP binding assay with probe 46, DCN2
T4 construct: DCN2 (residues 62–259), DCN3 (residues 86–304), DCN4 (residues 102–292) and DCN5 (residues 47–237); His6-TEV (N, cleaved yes); made in house; host or cells: Rosetta2 cells (E. coli)
T4 sequence (Q6PH85 62-259): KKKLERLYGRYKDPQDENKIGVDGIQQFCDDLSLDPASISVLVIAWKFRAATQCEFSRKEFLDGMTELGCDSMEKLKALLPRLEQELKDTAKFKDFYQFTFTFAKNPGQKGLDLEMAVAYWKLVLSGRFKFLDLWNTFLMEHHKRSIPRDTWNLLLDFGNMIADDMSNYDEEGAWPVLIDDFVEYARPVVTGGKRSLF
Description: The FP competitive binding experiments were performed to determine the binding affinities of all synthesized DCN1 inhibitors. […] Serial dilutions of DCN1 or DCN2 protein were mixed with the probe (46) to a final volume of 200 μl in the assay buffer (100 mM phosphate buffer, pH = 6.5, with 0.02% Tween-20 and 2% DMSO). The final probe concentration was 5 nM in both DCN1 and DCN2 assays. Plates were incubated at room temperature for 30 min with gentle shaking for equilibrium.
The IC50 and Ki values of compounds were determined in competitive binding experiments. Mixtures of compounds in DMSO (4 μl) and of pre-incubated protein/probe complex solution (196 μl) in the assay buffer were added into assay plates that were incubated at room temperature for 30 min with gentle shaking. Final concentrations of DCN1 protein and fluorescent probe (46) were 50 and 5 nM, respectively. […] FP values were measured as described above. IC50 values were determined by nonlinear regression fitting of the competition curves using the dose response inhibition equation (four parameters, variable slopes) included in the Prism/GraphPad software. K i values were calculated using the methods described earlier.

DCN5 = target: T5, DCN5 (Homo sapiens, UniProt Q9BTE7); experiment: Biochemical assays, binding of 47 to recombinant DCN5 (method not specified); conditions: concentrations up to 10 µM
T5 construct: DCN2 (residues 62–259), DCN3 (residues 86–304), DCN4 (residues 102–292) and DCN5 (residues 47–237); His6-TEV (N, cleaved yes); made in house; host or cells: Rosetta2 cells (E. coli)
T5 sequence (Q9BTE7 47-237): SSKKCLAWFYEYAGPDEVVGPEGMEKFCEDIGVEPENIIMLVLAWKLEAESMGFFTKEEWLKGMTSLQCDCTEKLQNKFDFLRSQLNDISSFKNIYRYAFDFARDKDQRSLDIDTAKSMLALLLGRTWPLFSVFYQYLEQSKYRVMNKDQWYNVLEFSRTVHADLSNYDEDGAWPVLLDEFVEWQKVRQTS

[3] = test system: cellular DCN1 and DCN2 proteins; experiment: Biotinylated protein pull-down assay, KYSE70 cell lysates; type: binding
Description: (§6) Complexes formed between the biotinylated DI inhibitor and its targeted proteins were recovered by incubation with Streptavidin-agarose beads (Thermo Scientific Pierce, Waltham, Massachusetts). DCN1 and DCN2 proteins associated with beads were eluted by heating and detected by immunoblotting.

DCN1 = DCN1 (Homo sapiens, UniProt Q96GG9); experiment: Biotinylated protein pull-down assay, KYSE140 cell lysates; type: binding; set-up: endogenous in cells; host or cells: KYSE70; KYSE140
Sequence of DCN1 (Q96GG9 whole entry): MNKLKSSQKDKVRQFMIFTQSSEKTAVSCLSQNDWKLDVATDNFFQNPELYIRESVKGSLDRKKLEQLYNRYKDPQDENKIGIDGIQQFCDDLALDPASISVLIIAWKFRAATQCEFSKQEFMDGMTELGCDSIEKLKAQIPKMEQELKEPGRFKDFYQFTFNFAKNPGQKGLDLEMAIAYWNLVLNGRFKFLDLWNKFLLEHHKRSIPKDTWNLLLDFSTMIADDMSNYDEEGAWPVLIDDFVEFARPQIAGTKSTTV
Description: as §6
GAPDH was used as a loading control. […]

inhibition of UBC12 neddylation (E1 activity), in words (NEDD8 E1 (APP-BP1/Uba3))	IC50 [1]	SMILES	EC50 (THLE2)	effect on neddylation of cullin 3, time course (in words) (neddylation of cullin 3)	EC50 (KYSE70)	NRF2 protein level (in words) (NRF2)	protein levels of p21, Bim and CDT1 (in words) (p21, Bim, CDT1)	effect on neddylation of cullin 1, time course (in words) ([2]; THLE2 liver cells, up to 24 h, DI-591 10 µM, MLN4924 0.3 µM)	concentrations that effectively suppress neddylation of all cullins examined ([2]; all cullins examined, panel of six cell lines, 24 h)	EC50 (KYSE140)	binding to recombinant DCN4 (in words) (DCN4)	binding to recombinant DCN3 (in words) (DCN3)	Ki (DCN2)	binding to recombinant DCN5 (in words) (DCN5)	pull-down of cellular DCN1 and DCN2 proteins (in words) [3]	pull-down of DCN1 protein (in words) (DCN1)
effectively inhibits	50 to 350 nM	NS(=O)(=O)OC[C@@H]1C[C@@H](n2ccc3c(N[C@H]4CCc5ccccc54)ncnc32)C[C@@H]1O [MLN4924]	53.4 nM	effective	356 nM	induces accumulation; also recorded: much stronger upregulation	induces accumulation	effective	10 to 300 nM	65.4 nM	–	–	–	–	–	–
–	–	CCC(=O)NC(Cc1nc2ccc(C(C)C)cc2s1)C(=O)NC(CNC(=O)C1CCN(CCOCCOCCOCCNC(=O)CCCCC2SCC3NC(=O)NC32)CC1)C1CCCCC1 (stereo not shown) [compound 47]	–	–	–	–	–	–	–	–	no appreciable binding	no appreciable binding	3.9 nM	no appreciable binding	efficiently pulls down	pulls down DCN1 protein
